Experimental data from patent publication US20250367117A1, “VITAMIN C-ENCAPSULATED LIPOSOME AND PREPARATION METHOD THEREFOR” (Hankook Liposome Co., Ltd., priority 2022, published 2025).

Assay: Bioavailability after oral administration: blood (serum) vitamin C concentration by HPLC
Assay type: in vivo
Settings: male, SD rat, 10 ml(200 mg)/kg
Procedure: The experimental animals used were SD rats (Samtago BIO KOREA Co., Ltd.), which have anatomical and physiological characteristics similar to humans and have the advantage of being useful as a pharmacokinetic model. The SD rats were male, 7-week-old (240-260 g), and were raised at a temperature of 20-24° C. and a relative humidity of 40-70%, and general symptoms were observed once a day for 5 days before the test. Solid feed for experimental animals (Purina Feed®) was provided, and the rats were allowed to consume it freely. […] As a control group, food vitamin C (purity 99.9%) was used, and the weight was measured and dissolved in purified water to prepare it. […] After putting the test substance into a 3 ml syringe, the zonde for rat oral administration was combined, and the test substance was administrated into the rat. For blood collection, about 300 μl of blood was collected from the jugular vein of all subjects in each group using a disposable syringe (1 ml, 26G, BD Biosciences, USA) at the scheduled time after administration. The blood was placed in a clean, light-shielded 1.5 ml amber tube, allowed to coagulate for 30 minutes at room temperature, and then centrifuged to separate the serum. The oral administration time points were 0, 1, 2, 4, 6, 8, 10, 12, and 24 hours (total of 9 time points). For blood sample separation and analysis, the harvested whole blood was coagulated and centrifuged at 3,000 rpm for 10 minutes using a centrifuge (Micro17R, Hanil, KOR) to separate the serum. Each 100 μl×1 tube was placed in a 1.5 ml Amber tube labeled with the test type, animal number, and blood collection time and stored in an ultra-low temperature freezer (approximately −70° C.). When testing, the stored samples were thawed at room temperature and the blood concentration of vitamin C was analyzed using HPLC (Alliance e2695, Waters, USA). […] For sample processing and analysis, 70 μL of the sample was taken and placed in a microtube, 70 μL of metaphosphoric acid (0.1 g/mL in water) was added, and then mixed using a vortexer for 30 seconds. The mixture was centrifuged at 14,000 rpm for 10 minutes, and the supernatant was transferred to a vial and injected into the HPLC for analysis. Since vitamin C is an endogenous substance, it was used after serum dialysis.

Cmax: 12000 ng/mL
Tmax: 7.67 h
AUC(0-t) (read-out: AUC0-24 of vitamin C): 234 µg·h/mL
half-life (read-out: T1/2 of vitamin C (converted)): 27.8 h
SMILES: O=C1O[C@H]([C@@H](O)CO)C(O)=C1O [vitamin C, ascorbic acid]
